Data: patent publication US20080269116A1 (priority 2004, published 2008)
Where no end group is shown, it is not given here. The star is where a group is joined. Octanoyl = CCCCCCCC(=O)*

Legend:
GHS-R = target: T1, GHS-R (Homo sapiens, UniProt Q92847); assay: Intracellular calcium mobilization in cultured human T cells (Fura-2); format: cell-based
T1 construct: endogenous in cells; host or cells: cultured human T cells
Procedure: Intracellular calcium mobilization. […] Cells were incubated in PBS containing 5 μM Fura-2 AM for 30 minutes at room temperature. The cells were subsequently washed and then resuspended at 1×10^6/mL in PBS. A total of 2 mL of the cell suspension was placed in a continuously stirring cuvette at room temperature in an LS50B spectrophotometer (Perkin-Elmer, Wellesley, Mass.). Fluorescence was monitored at λex1=340 nm, λex2=380 nm, and λem=510 nm. The data are presented as the relative ratio of fluorescence excited at 340 and 380 nm.

T cells or PBMCs = assay: Cytolytic effects: lactate dehydrogenase and trypan blue cell counts; format: cell-based, human; conditions: control vs hormone-treated T cells or PBMCs
Description: The classical pro-inflammatory cytokines, IL-1a, IL-1β, IL-6 and TNF-α are known to play a critical role in development of anorexia-cachexia syndrome (Inui et al. 1999. Cancer Res. 59: 4493-4501). The anorexia-cachexia syndrome is a complex multifactorial metabolic condition associated with altered protein, carbohydrate and fat metabolism resulting in anorexia, negative energy balance, weight loss and muscle wasting (Kotler et al. 2000. Ann. Internal Med. 133: 622-634).

human T cells [1] = assay: Actin polymerization in human T cells (phalloidin staining); format: cell-based; conditions: ghrelin 100 ng/ml, 20 min
Description: Actin Polymerization. […] Thereafter cells were fixed and permeabilized in 2% Paraformaldehyde plus 0.1% Triton-X 100 and stained for actin using phalloidin AF-594 and nucleus by DAPI.

LPS-induced endotoxemia [2] = assay: LPS-induced endotoxemia in mice: tissue cytokine mRNA, real time PCR; format: in vivo, BALB/c mice; conditions: for TNF-α expression: 24 h post LPS
Procedure: (§1) Mice. Male 20-22 g BALB/c mice (Taconic, Germantown, N.Y.), 8-10 weeks old, were used. The guidelines proposed by the committee for the Care of Laboratory Animal Resources Commission of Life Sciences-National Research Council were followed to minimize animal pain and distress. Each animal received rodent laboratory chow and ad libitum water.
(§2) LPS-induced inflammation. Endotoxin shock in mice was induced by intraperitoneal (i.p.) injection with 10 μg of LPS (E. coli serotype 055:B5, Sigma) as described previously (Bochkov et al. 2002. Nature. 419: 77-8). […] Mice were sacrificed 4 h and 24 h post-LPS challenge and visceral organs and serum were collected.
(§3) Real Time RT-PCR analysis. RT-PCR was performed as described previously (Nagasawa et al. Adv. Immunol. 71: 211-228 (1999)). Total RNA (2 μg) and oligo-dT primers were used to synthesize single-stranded cDNA using the Reverse Transcription kit (Life Technologies, Gaithersburg, Md.) according to manufacturer's instructions. The PCR was set up using SYBR green Master Mix (Applied Biosystems), 1 μl cDNA and gene-specific primers at a final concentration of 0.3 μM. Thermal cycling was carried out on the Applied Biosystems GeneAmp 7700 Sequence Detector and SYBR green dye intensity was analyzed using GeneAmp 7700 SDS software. […] Mouse IL-1β, IL-6, TNF-α, GAPDH and human GHS-R1a primers were designed using ABI prism software (PE Applied Biosystems). The PCR product of the GHS-R 1a amplification was quantitated using the Agilent 2100 Bioanalyzer (Agilent Technologies, Palo Alto, Calif.). Primers are available upon request. No PCR products were generated from genomic versus cDNA template.

Human PBMCs = assay: Cytokine production by PHA-stimulated human PBMCs (ELISA); format: cell-based; conditions: 24 h
primary human T cells [3] = assay: Cytokine production by anti-CD3-stimulated primary human T cells (ELISA); format: cell-based; conditions: immobilized anti-CD3 antibody, 24 h
Procedure: (§4) T cell isolation and culture. Peripheral blood mononuclear cells (PBMC) were obtained by Ficoll-Hypaque density centrifugation. T cells were purified from PBMC using human T cell enrichment columns (R&D systems) via high affinity negative selection according to manufacturer's instructions. […] T cells were stimulated with plate bound anti-human CD3 antibody (BD Pharmingen, San Diego, Calif.) (200 ng/ml) at a concentration of 3×10^6 cells/ml in AIM-V serum free media for 24 h.
(§5) Cytokine estimation. IL-1β, IL-6 and TNF-α were estimated in T cell supernatants after 24 h using commercial ELISA kits according to manufacturer's instructions (Biosource, Camarillo, Calif.). Serum cytokines were analyzed using Bio-Plex Mouse Cytokine 18-Plex Panel according to manufacturer's instructions (Biorad, Hercules, Calif.).

human T cells [4] = assay: T cell proliferation and IL-2 levels after anti-CD3 mAb and ghrelin; format: cell-based; conditions: anti-CD3 mAb and ghrelin treatment
LPS-induced endotoxemia [5] = assay: LPS-induced endotoxemia in mice: serum cytokine levels (Bio-Plex); format: in vivo, BALB/c mice
Procedure: as §1, §2, §5

primary human T cells [6] = assay: Leptin-induced cytokine protein and mRNA expression in anti-CD3-activated human T cells; format: cell-based; conditions: 24 h
Procedure: as §4, §5, §3

LPS-induced anorexia = assay: Food intake in LPS-challenged and control mice; format: in vivo, BALB/c mice
Procedure: as §1, §2

T cells = assay: Cytokine mRNA expression in T cells, real time RT-PCR; format: cell-based, human; conditions: normalized with GAPDH
Procedure: as §4, §3

human T cells [7] = assay: Effect of leptin on ghrelin and GHS-R expression in human T cells; format: cell-based
Procedure: as §4
as §3, with “No PCR products were generated from genomic versus cDNA template.” left out

[8] = spleen and liver, 4 and 24 h post LPS, ghrelin 5 mg/kg i.p.
[9] = PHA 1 μg/ml, ghrelin 1 to 100 ng/ml
[10] = ghrelin alone vs sham control mice
[11] = leptin alone, primary human T cells and PBMCs

T1 sequence (Q92847 whole entry): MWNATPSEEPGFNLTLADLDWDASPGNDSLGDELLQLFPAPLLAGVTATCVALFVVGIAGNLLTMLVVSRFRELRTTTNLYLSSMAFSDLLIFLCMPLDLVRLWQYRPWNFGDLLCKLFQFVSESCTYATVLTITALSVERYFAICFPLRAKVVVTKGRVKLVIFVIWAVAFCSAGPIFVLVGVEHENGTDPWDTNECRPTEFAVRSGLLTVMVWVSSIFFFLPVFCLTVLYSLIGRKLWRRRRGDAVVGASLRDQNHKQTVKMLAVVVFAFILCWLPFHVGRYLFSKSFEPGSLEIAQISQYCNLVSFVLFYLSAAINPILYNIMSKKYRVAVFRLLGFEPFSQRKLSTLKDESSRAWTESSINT

Gly-Ser-Ser(n-Octanoyl)-Phe-Leu-Ser-Pro-Glu-His-Gln-Arg-Val-Gln-Gln-Arg-Lys-Glu-Ser-NH2 (GSS(Octanoyl)FLSPEHQRVQQRKES-NH2; N-terminus assumed; SMILES CCCCCCCC(=O)OC[C@H](NC(=O)[C@H](CO)NC(=O)CN)C(=O)N[C@@H](Cc1ccccc1)C(=O)N[C@@H](CC(C)C)C(=O)N[C@@H](CO)C(=O)N1CCC[C@H]1C(=O)N[C@@H](CCC(=O)O)C(=O)N[C@@H](Cc1c[nH]cn1)C(=O)N[C@@H](CCC(N)=O)C(=O)N[C@@H](CCCNC(=N)N)C(=O)N[C@H](C(=O)N[C@@H](CCC(N)=O)C(=O)N[C@@H](CCC(N)=O)C(=O)N[C@@H](CCCNC(=N)N)C(=O)N[C@@H](CCCCN)C(=O)N[C@@H](CCC(=O)O)C(=O)N[C@@H](CO)C(N)=O)C(C)C) [ghrelin 1-18 fragment]
rise in intracellular [Ca^2+] (GHS-R; cultured human T cells, ghrelin 100 ng/ml): significant and specific rise in intracellular [Ca^2+]

ghrelin
cytolytic effects (LDH, cell counts by trypan blue exclusion) (T cells or PBMCs): failed to demonstrate any significant difference between control and hormone-treated cells
actin polymerization / polarization of F-actin (human T cells [1]): marked increase in broad membrane structures characteristic of lamellipodia with typical polarization of F-actin
TNF-α expression (LPS-induced endotoxemia [2]; liver): inhibited
IL-1β mRNA expression (LPS-induced endotoxemia [2]; [8]): attenuation
IL-6 mRNA expression (LPS-induced endotoxemia [2]; [8]): attenuation
TNF-α mRNA (LPS-induced endotoxemia [2]; spleen and liver, 4 h post LPS): Attenuation
TNF-α expression (LPS-induced endotoxemia [2]; spleen): remained unchanged
TGF-β production (Human PBMCs; PHA 1 μg/ml, any concentration tested): failed to alter TGF-β production
IL-1β production (Human PBMCs; [9]): significant inhibition
IL-6 production (Human PBMCs; [9]): significant inhibition
TNF-α production (Human PBMCs; [9]): significant inhibition
IL-1β production (primary human T cells [3]): significant dose-dependent inhibition
IL-6 production (primary human T cells [3]): significant dose-dependent inhibition
IL-2 secretion (human T cells [4]): no significant effects
T cell proliferation (human T cells [4]): no significant effects
serum IL-1β (LPS-induced endotoxemia [5]; 24 h after LPS challenge): significant inhibition
serum IL-6 (LPS-induced endotoxemia [5]; 24 h after LPS challenge): significant inhibition
serum ILα levels (LPS-induced endotoxemia [5]; 24 h post LPS and ghrelin treatment): inhibited
Serum IL-1α level (LPS-induced endotoxemia [5]; [10]): significantly inhibited
Serum IL-1β level (LPS-induced endotoxemia [5]; [10]): significantly inhibited
circulating IL-6 level (LPS-induced endotoxemia [5]; serum, 4 h): but not in IL-1β (FIG. 7a) or IL-6
circulating TNF-α level (LPS-induced endotoxemia [5]; serum, 4 h): significant change
leptin-induced cytokine protein and gene expression (IL-1β, IL-6, TNF-α) (primary human T cells [6]; ghrelin co-incubated with leptin 100 nM, T cells): dose-dependent inhibition
LPS-induced anorexia (food intake) (LPS-induced anorexia; 24 h post ghrelin and LPS, prior ghrelin treatment): significant attenuation of this LPS-induced anorexia
increase in food intake compared to sham controls (LPS-induced anorexia; ghrelin-treated control mice in the absence of LPS challenge, 24 h): 30%
IL-1β mRNA expression (T cells): significantly inhibits
IL-6 mRNA expression (T cells): significantly inhibits
TNF-α mRNA expression (T cells): significantly inhibits

leptin: a member of gp130 family of cytokines, regarded as a pro-inflammatory inducer
ghrelin protein production or gene expression (human T cells [7]; anti-CD3-stimulated T cells, 24 h): failed to exert any significant effects
GHS-R mRNA expression (human T cells [7]; human T cells, real time RT-PCR): significant increase
IL-1β protein and mRNA expression (primary human T cells [6]; [11]): significant dose-dependent increase
IL-6 protein and mRNA expression (primary human T cells [6]; [11]): significant dose-dependent increase
TNF-α protein and mRNA expression (primary human T cells [6]; [11]): significant dose-dependent increase

[D-Lys-3]-GHRP-6 [reference compound]
effect on ghrelin-mediated inhibition of cytokine production (Human PBMCs; antagonist 10^−4 M added with ghrelin, PHA-stimulated PBMCs): attenuated this ghrelin-mediated inhibition
effect on ghrelin-mediated intracellular calcium release (GHS-R; pretreatment with antagonist 10^−4 M, then ghrelin 100 ng/ml): markedly attenuated
